These results are taken from patent US20260022142A1, “MACROCYCLIC IMMUNOMODULATORS” (Bristol-Myers Squibb Company, priority 2022, published 2026).

Bridge positions count the residues as written; N and C are the ends. Square brackets hold non-standard residues; d marks the D form. Peptide text beside a SMILES is read from it. * marks the point of attachment. ξ: configuration not given here. Phe(3-CF3) = N[C@@H](Cc1cccc(C(F)(F)F)c1)C(=O)O; Phe(4-COOH) = N[C@@H](Cc1ccc(C(=O)O)cc1)C(=O)O; Bip = N[C@@H](Cc1ccc(-c2ccccc2)cc1)C(=O)O; NH(CH2)14COOH = O=C(O)CCCCCCCCCCCCCCN*; Phe(3-Me) = Cc1cccc(C[C@H](N)C(=O)O)c1; NH(CH2)12COOH = O=C(O)CCCCCCCCCCCCN*; Val(3-OH) = CC(C)(O)[C@H](N)C(=O)O; 4Pal = N[C@@H](Cc1ccncc1)C(=O)O; Cha = N[C@@H](CC1CCCCC1)C(=O)O; Cit = NC(=O)NCCC[C@H](N)C(=O)O; dCha = N[C@H](CC1CCCCC1)C(=O)O; PEG4 = NCCOCCOCCOCCOCCC(=O)O; dDab = NCC[C@@H](N)C(=O)O; hSer = N[C@@H](CCO)C(=O)O; Carboxymethyl = O=C(O)C*; Nle = CCCC[C@H](N)C(=O)O; Orn = NCCC[C@H](N)C(=O)O; Aun = NCCCCCCCCCCC(=O)O; Dab = NCC[C@H](N)C(=O)O; Dap = NC[C@H](N)C(=O)O; AEEA = NCCOCCOCC(=O)O; ξT = CC(O)C(N)C(=O)O

In this experiment the target is T1, PD-1/PD-L1 interaction (PE-labeled human PD-L1-Ig binding to Jurkat cell line over-expressing human PD-1) (Homo sapiens, UniProt Q15116).
T1 construct: expressed in transfected cells; host or cells: Jurkat
T1 sequence (Q15116 25-288): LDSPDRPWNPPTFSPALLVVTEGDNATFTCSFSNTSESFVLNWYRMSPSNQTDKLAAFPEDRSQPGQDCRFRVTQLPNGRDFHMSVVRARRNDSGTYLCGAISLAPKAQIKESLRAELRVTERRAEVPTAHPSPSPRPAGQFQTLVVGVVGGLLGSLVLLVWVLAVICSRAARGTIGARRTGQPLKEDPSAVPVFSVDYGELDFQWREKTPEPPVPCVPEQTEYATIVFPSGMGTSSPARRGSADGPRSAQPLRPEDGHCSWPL
The experiment is described as follows: Jurkat-PD-1 Cell Binding High-Content Screening Assay (CBA). Conditions: Jurkat cell line over-expressing human PD-1; PE-labeled PD-L1-Ig 20 nM final; read-out: Jurkat hPD1-PDL1 IC50. Type of experiment: cell-based. The method in brief:
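Jurkat cells over-expressing human PD-1 (8×10^3 per well, DMEM/10% FCS) preincubated with compound 2 h at 37° C, then PE-labeled human PD-L1-Ig (20 nM final) added for 1 h. Cells fixed with paraformaldehyde, Hoechst-stained, and bound fluorescence quantified by high-content imaging.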
`CCCC[C@@H]1NC(=O)CSC[C@@H](C(=O)N[C@H](CCN)C(=O)NCCOCCOCC(=O)NCCOCCOCC(=O)NCCCCCCCCCCCCC(=O)O)NC(=O)[C@H](CO)NC(=O)[C@H](C(C)(C)O)NC(=O)[C@H](CC2CCCCC2)NC(=O)[C@H](CCN)NC(=O)[C@@H](CC(C)C)NC(=O)[C@H](CCCN)NC(=O)[C@H](Cc2ccc(C(=O)O)cc2)NC(=O)[C@H](Cc2ccc(-c3ccccc3)cc2)NC(=O)[C@H](Cc2ccc(C(=O)O)cc2)NC(=O)[C@H](Cc2cccc(C(F)(F)F)c2)NC(=O)[C@H](CC(=O)O)NC(=O)[C@H](Cc2ccc(OCC(=O)O)cc2)NC1=O` [Compound 3827] ({CH2CO}-[Nle]Y(Carboxymethyl)D[Phe(3-CF3)][Phe(4-COOH)][Bip][Phe(4-COOH)][Orn][dL][Dab][Cha][Val(3-OH)]SC[dDab][AEEA][AEEA]-{NH(CH2)12COOH}; thioether N-14): the IC50 – broadly, the concentration that inhibits the measured activity by half – turned out to be 141 nM.
With `Cc1cccc(C[C@@H]2NC(=O)[C@H](CC(=O)O)NC(=O)[C@H](Cc3ccc(OCC(=O)O)cc3)NC(=O)[C@H](CN)NC(=O)CSC[C@@H](C(=O)N[C@@H](CCCCN)C(=O)NCCOCCOCC(=O)NCCCCCCCCCCC(=O)O)NC(=O)[C@H](CN)NC(=O)[C@H](C(C)C)NC(=O)[C@H](CC3CCCCC3)NC(=O)[C@H](CCN)NC(=O)[C@@H](CC(C)C)NC(=O)[C@H](CCCN)NC(=O)[C@H](CCC(=O)O)NC(=O)[C@H](Cc3ccc(-c4ccccc4)cc3)NC(=O)[C@H](C(C)C)NC2=O)c1` [Compound 2668] ({CH2CO}-[Dap]Y(Carboxymethyl)D[Phe(3-Me)]V[Bip]E[Orn][dL][Dab][Cha]V[Dap]CK[AEEA][Aun]-OH; thioether N-14), the IC50 came out at 10.8 nM.
On to `Cc1cccc(C[C@@H]2NC(=O)[C@H](CC(=O)O)NC(=O)[C@H](Cc3ccncc3)NC(=O)[C@H](Cc3ccc(OCC(=O)O)cc3)NC(=O)CSC[C@@H](C(=O)N[C@@H](CCCN)C(=O)NCCCCCCCCCCC(=O)O)NC(=O)[C@H]([C@@H](C)O)NC(=O)[C@H](C(C)C)NC(=O)[C@H](CC3CCCCC3)NC(=O)[C@H](CCN)NC(=O)[C@@H](CC(C)C)NC(=O)[C@H](CCCN)NC(=O)[C@H](C(C)C)NC(=O)[C@H](Cc3ccc(-c4ccccc4)cc3)NC(=O)[C@H](C(C)C)NC2=O)c1` [Compound 1165] ({CH2CO}-Y(Carboxymethyl)[4Pal]D[Phe(3-Me)]V[Bip]V[Orn][dL][Dab][Cha]VTC[Orn][Aun]-OH; thioether N-14), for which the IC50 came out at 104 nM.
In the case of `Cc1cccc(C[C@@H]2NC(=O)[C@H](CC(=O)O)NC(=O)[C@H](Cc3ccc(C(=O)O)cc3)NC(=O)[C@H](CC(C)C)NC(=O)CSC[C@@H](C(=O)N[C@@H](CCN)C(=O)NCCOCCOCCOCCOCCC(=O)NCCCCCCCCCCCCCCC(=O)O)NC(=O)[C@H](CCC(=O)O)NC(=O)[C@H](C(C)C)NC(=O)[C@H](CC3CCCCC3)NC(=O)[C@H](CCN)NC(=O)[C@@H](CC(C)C)NC(=O)[C@H](CCCN)NC(=O)[C@H](Cc3ccc(C(=O)O)cc3)NC(=O)[C@H](Cc3ccc(-c4ccccc4)cc3)NC(=O)[C@H](Cc3ccc(C(=O)O)cc3)NC2=O)c1` [Compound 3909] ({CH2CO}-L[Phe(4-COOH)]D[Phe(3-Me)][Phe(4-COOH)][Bip][Phe(4-COOH)][Orn][dL][Dab][Cha]VEC[Dab][PEG4]-{NH(CH2)14COOH}; thioether N-14), the IC50 is 15.7 nM.
On to `Cc1cccc(C[C@@H]2NC(=O)[C@H](CC(=O)O)NC(=O)[C@H](Cc3ccc(O)cc3)NC(=O)[C@H](CC(N)=O)NC(=O)CSC[C@@H](C(=O)N[C@@H](CCCN)C(=O)NCCCCCCCCCCC(=O)O)NC(=O)C(C(C)O)NC(=O)[C@H](C(C)C)NC(=O)[C@H](CC(C)C)NC(=O)[C@H](CCN)NC(=O)[C@@H](CC(C)C)NC(=O)[C@H](CCCN)NC(=O)[C@H](CCCNC(N)=O)NC(=O)[C@H](Cc3ccc(-c4ccccc4)cc3)NC(=O)[C@H](C(C)C)NC2=O)c1` (stereo partly drawn) [Compound 2774] ({CH2CO}-NYD[Phe(3-Me)]V[Bip][Cit][Orn][dL][Dab]LV[ξT]C[Orn][Aun]-OH; thioether N-14), for which the IC50 was 71.9 nM.
The value for `CC(C)[C@@H]1NC(=O)[C@H](CC2CCCCC2)NC(=O)[C@H](CCN)NC(=O)[C@@H](CC2CCCCC2)NC(=O)[C@H](CCCN)NC(=O)[C@H](C(C)C)NC(=O)[C@H](Cc2ccc(-c3ccccc3)cc2)NC(=O)[C@H](C(C)C)NC(=O)[C@H](Cc2c[nH]c3ccccc23)NC(=O)[C@H](CC(=O)O)NC(=O)[C@H](Cc2ccc(OCC(=O)O)cc2)NC(=O)[C@H](CN)NC(=O)CSC[C@@H](C(=O)N[C@@H](CCN)C(=O)NCCOCCOCC(=O)NCCCCCCCCCCC(=O)O)NC(=O)[C@H](CCCCN)NC1=O` [Compound 2679] ({CH2CO}-[Dap]Y(Carboxymethyl)DWV[Bip]V[Orn][dCha][Dab][Cha]VKC[Dab][AEEA][Aun]-OH; thioether N-14) was 26.9 nM; that for `Cc1cccc(C[C@@H]2NC(=O)[C@H](CC(=O)O)NC(=O)[C@H](Cc3ccc(OCC(=O)O)cc3)NC(=O)[C@H](CCCNC(=N)N)NC(=O)CSC[C@@H](C(=O)N[C@@H](CCN)C(=O)NCCCCCCCCCCC(=O)O)NC(=O)[C@H](CCO)NC(=O)[C@H](C(C)C)NC(=O)[C@H](CC3CCCCC3)NC(=O)[C@H](CCN)NC(=O)[C@@H](CC(C)C)NC(=O)[C@H](CCCN)NC(=O)[C@H](Cc3ccc(OCC(=O)O)cc3)NC(=O)[C@H](Cc3ccc(-c4ccccc4)cc3)NC(=O)[C@H](Cc3ccc(OCC(=O)O)cc3)NC2=O)c1` [Compound 2094] ({CH2CO}-RY(Carboxymethyl)D[Phe(3-Me)]Y(Carboxymethyl)[Bip]Y(Carboxymethyl)[Orn][dL][Dab][Cha]V[hSer]C[Dab][Aun]-OH; thioether N-14) was 6.6 nM; that for `CCCC[C@@H]1NC(=O)CSC[C@@H](C(=O)N[C@@H](CCN)C(=O)NCCOCCOCC(=O)NCCOCCOCC(=O)NCCCCCCCCCCCCC(=O)O)NC(=O)[C@H](CO)NC(=O)[C@H](C(C)(C)O)NC(=O)[C@H](CC2CCCCC2)NC(=O)[C@H](CCN)NC(=O)[C@@H](CC(C)C)NC(=O)[C@H](CCCN)NC(=O)[C@H](Cc2ccc(C(=O)O)cc2)NC(=O)[C@H](Cc2ccc(-c3ccccc3)cc2)NC(=O)[C@H](Cc2ccc(C(=O)O)cc2)NC(=O)[C@H](Cc2cccc(C(F)(F)F)c2)NC(=O)[C@H](CC(=O)O)NC(=O)[C@H](Cc2ccc(OCC(=O)O)cc2)NC1=O` [Compound 2909] ({CH2CO}-[Nle]Y(Carboxymethyl)D[Phe(3-CF3)][Phe(4-COOH)][Bip][Phe(4-COOH)][Orn][dL][Dab][Cha][Val(3-OH)]SC[Dab][AEEA][AEEA]-{NH(CH2)12COOH}; thioether N-14) was 18.2 nM.
To `Cc1cccc(C[C@@H]2NC(=O)[C@H](CC(=O)O)NC(=O)[C@H](Cc3ccc(OCC(=O)O)cc3)NC(=O)[C@H](Cc3ccncc3)NC(=O)CSC[C@@H](C(=O)N[C@@H](CCN)C(=O)NCCCCCCCCCCC(=O)O)NC(=O)[C@H]([C@@H](C)O)NC(=O)[C@H](C(C)C)NC(=O)[C@H](CC3CCCCC3)NC(=O)[C@H](CCN)NC(=O)[C@@H](CC(C)C)NC(=O)[C@H](CCCN)NC(=O)[C@H](CCCNC(N)=O)NC(=O)[C@H](Cc3ccc(-c4ccccc4)cc3)NC(=O)[C@H](C(C)C)NC2=O)c1` [Compound 2831] ({CH2CO}-[4Pal]Y(Carboxymethyl)D[Phe(3-Me)]V[Bip][Cit][Orn][dL][Dab][Cha]VTC[Dab][Aun]-OH; thioether N-14) belongs 43.2 nM.
The value for `Cc1cccc(C[C@@H]2NC(=O)[C@H](CC(=O)O)NC(=O)[C@H](Cc3ccc(C(=O)O)cc3)NC(=O)[C@H](CCN)NC(=O)CSC[C@@H](C(=O)N[C@@H](CCN)C(=O)NCCOCCOCC(=O)NCCOCCOCC(=O)NCCCCCCCCCCCCC(=O)O)NC(=O)[C@H](CO)NC(=O)[C@H](C(C)(C)O)NC(=O)[C@H](CC3CCCCC3)NC(=O)[C@H](Cc3c[nH]cn3)NC(=O)[C@@H](CC(C)C)NC(=O)[C@H](CCCN)NC(=O)[C@H](Cc3ccc(C(=O)O)cc3)NC(=O)[C@H](Cc3ccc(-c4ccccc4)cc3)NC(=O)[C@H](Cc3ccc(C(=O)O)cc3)NC2=O)c1` [Compound 2890] ({CH2CO}-[Dab][Phe(4-COOH)]D[Phe(3-Me)][Phe(4-COOH)][Bip][Phe(4-COOH)][Orn][dL]H[Cha][Val(3-OH)]SC[Dab][AEEA][AEEA]-{NH(CH2)12COOH}; thioether N-14) was 31.1 nM; that for `Cc1cccc(C[C@@H]2NC(=O)[C@H](CC(=O)O)NC(=O)[C@H](Cc3ccc(OCC(=O)O)cc3)NC(=O)[C@H](Cc3ccc(OCC(=O)O)cc3)NC(=O)CSC[C@@H](C(=O)NCC(=O)N[C@@H](CCCCN)C(=O)NCCCCCCCCCCC(=O)O)NC(=O)[C@H](CO)NC(=O)[C@H](C(C)C)NC(=O)[C@H](CC3CCCCC3)NC(=O)[C@H](CCN)NC(=O)[C@@H](CC(C)C)NC(=O)[C@H](CCCN)NC(=O)[C@H](C(C)C)NC(=O)[C@H](Cc3ccc(-c4ccccc4)cc3)NC(=O)[C@H](CC(C)C)NC2=O)c1` [Compound 1069] ({CH2CO}-Y(Carboxymethyl)Y(Carboxymethyl)D[Phe(3-Me)]L[Bip]V[Orn][dL][Dab][Cha]VSCGK[Aun]-OH; thioether N-14) was 41.7 nM.
As for `Cc1cccc(C[C@@H]2NC(=O)[C@H](CC(=O)O)NC(=O)[C@H](Cc3ccc(OCC(=O)O)cc3)NC(=O)[C@H](CN)NC(=O)CSC[C@@H](C(=O)NCC(=O)NCCCCCCCCCCC(=O)O)NC(=O)[C@H]([C@@H](C)O)NC(=O)[C@H](C(C)C)NC(=O)[C@H](CC3CCCCC3)NC(=O)[C@H](CCN)NC(=O)[C@@H](CC(C)C)NC(=O)[C@H](CCCN)NC(=O)[C@H](CCCNC(N)=O)NC(=O)[C@H](Cc3ccc(-c4ccccc4)cc3)NC(=O)[C@H](C(C)C)NC2=O)c1` [Compound 1295] ({CH2CO}-[Dap]Y(Carboxymethyl)D[Phe(3-Me)]V[Bip][Cit][Orn][dL][Dab][Cha]VTCG[Aun]-OH; thioether N-14), the IC50 is 22.2 nM.
